According to patent US4804676A, “Enkephalinase B inhibitors, their preparation, and pharmaceutical compositions containing the same” (Sankyo Company Limited, priority 1984, dated 1989):
Where two headings read alike, the source gives them in different places.

Legend:
enkephalinase B [1] = molecular target: T1, enkephalinase B (Rattus norvegicus, UniProt O55096); test: Enkephalinase B inhibition IC50, method of Parker and Waud, substrate 0.1 mM methionine-enkephalin; type: biochemical
T1 construct: from tissue; host or cells: rat brain membrane, Triton X-100 solubilized, purified by DEAE chromatography, chromatofocusing and gel filtration
T1 sequence (O55096 2-738 limits assumed): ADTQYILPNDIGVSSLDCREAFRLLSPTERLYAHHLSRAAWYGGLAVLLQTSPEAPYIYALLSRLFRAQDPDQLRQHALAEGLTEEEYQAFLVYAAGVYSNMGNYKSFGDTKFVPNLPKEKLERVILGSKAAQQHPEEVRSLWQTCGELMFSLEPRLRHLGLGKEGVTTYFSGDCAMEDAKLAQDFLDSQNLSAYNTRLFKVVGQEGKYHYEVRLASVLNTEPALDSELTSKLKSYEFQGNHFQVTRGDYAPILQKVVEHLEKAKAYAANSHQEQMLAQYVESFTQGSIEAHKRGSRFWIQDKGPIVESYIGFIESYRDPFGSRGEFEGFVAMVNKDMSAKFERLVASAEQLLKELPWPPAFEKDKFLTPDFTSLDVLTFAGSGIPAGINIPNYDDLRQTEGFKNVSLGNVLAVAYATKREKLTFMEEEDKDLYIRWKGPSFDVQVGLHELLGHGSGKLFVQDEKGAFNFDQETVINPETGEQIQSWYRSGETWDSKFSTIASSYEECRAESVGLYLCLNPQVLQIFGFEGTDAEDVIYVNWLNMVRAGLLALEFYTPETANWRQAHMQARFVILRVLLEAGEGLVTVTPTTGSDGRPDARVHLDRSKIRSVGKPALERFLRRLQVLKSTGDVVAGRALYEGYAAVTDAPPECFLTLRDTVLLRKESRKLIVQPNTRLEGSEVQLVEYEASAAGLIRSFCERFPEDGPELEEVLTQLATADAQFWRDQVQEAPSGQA
Description: (§1) 100 g of rat brain was homogenized using 1 liter of 50 mM tris-HCl buffer (pH 7.7) and the homogenate was centrifuged at 50,000 G for 15 minutes to give a precipitate. The precipitate was washed three times and centrifuged as before. It was then suspended in 500 ml of the same buffer containing 1% of Triton X-100, and kept at 37° C. for 1 hour. The suspension was centrifuged at 100,000 G for 1 hour to give a crude enzyme solution of enkephalinase B as supernatant.
The thus obtained crude enzyme solution was dialyzed against a 5 mM sodium phosphate buffer (pH 7.0) and was applied for adsorption to a column (3.0×30 cm) of DEAE-Sephacel (produced by Pharmacia Co. Ltd.) previously equilibrated with the same buffer containing 1% Triton X-100 (solution A). The column was washed with solution A and eluted with 2.5 liters of solution A and with 2.5 liters of solution A which contains 0.4M sodium chloride by the linear concentration gradient method. […]
A mixture of 40 μl of 0.1M sodium phosphate buffer (pH 6.5), 10 μl of a Propioxatin A solution and 40 μl of an enkephalinase B solution was incubated at 37° C. for 5 minutes, then 10 μl of a 1 mM or 10 mM methionine-enkephalin solution were added, followed by stirring at 37° C. for 20 minutes. The reaction was then stopped by adding 10 μl of 2N hydrochloric acid to the reaction mixture, and the amount of tyrosyl-glycine (Tyr-Gly) produced (Vi) with respect to 20 μl of the reaction mixture was determined by high pressure liquid chromatography. Similarly, the amount of tyrosyl-glycine produced (V) in a blank test, in which no Propioxatin was contained and only a buffer was used, was measured. […]
By way of comparison, the enkephalinase B inhibition activity was also measured for the compound N-[3-(N-hydroxycarbamoyl)-2-benzylpropanoyl]alanine, which is a compound within formula (I) of the above-mentioned French patent specification No. 2 518 088 (Japanese laid-open application No. 58-150547). […]

enkephalinase B [2] = molecular target: T1, enkephalinase B; test: Enzymatic properties of purified enkephalinase B (Michaelis constant); type: biochemical; conditions: purified rat brain enkephalinase B
Description: as §1
(§2) The thus obtained crude enzyme solution was dialyzed against a 5 mM sodium phosphate buffer (pH 7.0) and was applied for adsorption to a column (3.0×30 cm) of DEAE-Sephacel (produced by Pharmacia Co. Ltd.) previously equilibrated with the same buffer containing 1% Triton X-100 (solution A). The column was washed with solution A and eluted with 2.5 liters of solution A and with 2.5 liters of solution A which contains 0.4M sodium chloride by the linear concentration gradient method.
(§3) The obtained fraction of enkephalinase B was dialyzed against solution A, and was applied for adsorption to a column (1.6×27 cm) of DEAE-Toyopearl 670S (produced by Toyo Soda Kogyo K.K.) previously equilibrated with solution A. Elution was carried out using 500 ml of solution A and 500 ml of a solution of 0.4M sodium chloride dissolved in solution A by the linear concentration gradient method. […]

Solubility = type: physicochemical
rat = test: Analgesic action by the Randall-Selitto method after administration into the cerebral ventricle; type: in vivo
Description: Propioxatin A (10 μg) and enkephalin (1 mg) were administered simultaneously into the cereberal ventricle of a rat and the analgesic action thereof was examined by the Randall-Selitto method (Randall, L. D. and Selitto, J. J.; Arch. Int. Pharmacodyn. 111, 409-419 (1957)). The same quantities of Propioxatinn A and enkephalin were also administered separately, as controls.

enkephalinase B [3] = molecular target: T1, enkephalinase B; test: Inhibition of enkephalinase B, Ki by the method of Dixon (Tyr-Gly released from methionine-enkephalin, HPLC); type: biochemical; conditions: for Ki: enkephalinase B, pH 6.5, 37° C., methionine-enkephalin substrate, method of Dixon, read-out: Ki value (inhibition constant)
Description: The presence of the desired substances, Propioxatins A and B, can be assessed quantitavely during the processes of cultivation and purification by measuring the enkephalinase B inhibition activity. To do this, methionine-enkephalin is incubated with an enkephalinase B solution containing the Propioxatin, and then the amount of the resulting product tyrosyl-glycine (Tyr-Gly) is estimated by chromatography (e.g. thin layer chromatography or high pressure liquid chromatography). A blank test without Propioxatin is also carried out, and the enkephalinase B inhibition constant is determined. The enkephalinase B solution used for this technique can be prepared from rat brain by generally-known enzyme purification methods. Since enkephalinase B exists in rat brain as a membrane-bound enzyme, it is released from the membrane and made soluble using a detergent such as Triton X-100. The solubilized enzyme is then subjected to a combination of purification processes such as ion-exchange chromatography in which various kinds of ion-exchangers having a diethylaminoethyl (DEAE) group can be used, gel filtration using a molecular sieve, or isoelectric fractionation to obtain the purified enkephalinase B. These methods are described in greater detail hereinafter in the Examples.
as §1, §2, §3

[4] = enkephalin 1 mg, Propioxatin A 10 μg

Solubility in ethanol and acetone (Solubility)	Solubility in ethyl acetate, chloroform, benzene and ether (Solubility)	Solubility in water, methanol and dimethyl sulfoxide (Solubility)	type of inhibition of enkephalinase B (enkephalinase B [3])	Ki (enkephalinase B [3])	SMILES	further results
–	–	–	–	–	C[C@H](NC(=O)C(CC(=O)NO)Cc1ccccc1)C(=O)O (stereo partly drawn) [Compound of FR 2 518 088, N-[3-(N-hydroxycarbamoyl)-2-benzylpropanoyl]alanine, reference compound]	IC50 (enkephalinase B [1]): 44200 nM
–	–	–	–	–	CSCC[C@H](NC(=O)[C@H](Cc1ccccc1)NC(=O)CNC(=O)CNC(=O)[C@@H](N)Cc1ccc(O)cc1)C(=O)O [Methionine-enkephaline, Tyr-Gly-Gly-Phe-Met]	Km value relative to Methionine-enkephaline (Michaelis constant) (enkephalinase B [2]): 53 µM
slightly soluble	insoluble	Soluble	competitive inhibitor	13 nM	CCC[C@H](CC(=O)NO)C(=O)N1CCC[C@H]1C(=O)N[C@H](C(=O)O)C(C)C [Propioxatin A]	analgesic effect (rat; Propioxatin A 10 μg injected alone): No appreciable analgesic effect; prolonging the analgesic action of enkephalin (rat; Propioxatin A 10 μg with enkephalin 1 mg): significantly effective; IC50 (enkephalinase B [1]; enkephalinase B, substrate 0.1 mM methionine-enkephalin, read-out: IC50 (converted)): 29.9 nM; more active than the prior art compound (enkephalinase B [1]; ratio to the compound of FR 2 518 088, enkephalinase B IC50): approximately 1,000
slightly soluble	insoluble	Soluble	competitive inhibitor	110 nM	CC(C)C[C@H](CC(=O)NO)C(=O)N1CCC[C@H]1C(=O)N[C@H](C(=O)O)C(C)C [Propioxatin B]	–
–	–	–	–	–	CC(C)C[C@H](NC(=O)[C@H](Cc1ccccc1)NC(=O)CNC(=O)CNC(=O)[C@@H](N)Cc1ccc(O)cc1)C(=O)O [enkephalin]	time for analgesic effect to fall to 50% of its peak value (rat; [4]): about 30 minutes; time of peak value of analgesic effect after injection (rat; [4]): approximately 10 minutes
